The series in a line: Diastereomer interconversion. The conditions noted are these: in vitro and in vivo. Type of series: physicochemical.

Among the data in US12171768B2, “IRAK4 degraders and uses thereof” (priority 2021, dated 2024) are Diastereomer interconversion values, retold here.

Molecules are shown by their SMILES.

On to `Cn1c(=O)n([C@@H]2CCC(=O)NC2=O)c2cccc(C#CCOC3CCN(C[C@H]4CC[C@H](n5cc(NC(=O)c6cnn7ccc(N8C[C@H]9C[C@@H]8CO9)nc67)c(C(F)F)n5)CC4)CC3)c21` [Compound C, 5-((1R,4R)-2-oxa-5-azabicyclo[2.2.1]heptan-5-yl)-N-(3-(difluoromethyl)-1-((1r,4R)-4-((4-((3-(1-((R)-2,6-dioxopiperidin-3-yl)-3-methyl-2-oxo-2,3-dihydro-1H-benzo[d]imidazol-4-yl)prop-2-yn-1-yl)oxy)piperidin-1-yl)methyl)cyclohexyl)-1H-pyrazol-4-yl)pyrazolo[1,5-a]pyrimidine-3-carboxamide], for which the Diastereomer interconversion entry is “interconvert rapidly”.
For `Cn1c(=O)n([C@H]2CCC(=O)NC2=O)c2cccc(C#CCOC3CCN(C[C@H]4CC[C@H](n5cc(NC(=O)c6cnn7ccc(N8C[C@H]9C[C@@H]8CO9)nc67)c(C(F)F)n5)CC4)CC3)c21` [Compound B, 5-((1R,4R)-2-oxa-5-azabicyclo[2.2.1]heptan-5-yl)-N-(3-(difluoromethyl)-1-((1r,4R)-4-((4-((3-(1-((S)-2,6-dioxopiperidin-3-yl)-3-methyl-2-oxo-2,3-dihydro-1H-benzo[d]imidazol-4-yl)prop-2-yn-1-yl)oxy)piperidin-1-yl)methyl)cyclohexyl)-1H-pyrazol-4-yl)pyrazolo[1,5-a]pyrimidine-3-carboxamide] the value was “interconvert rapidly”.
